Experiment [1] deals with T1, Cysteinyl leukotriene receptor 1 (Homo sapiens, UniProt Q9Y271).
T1 sequence (Q9Y271 whole entry): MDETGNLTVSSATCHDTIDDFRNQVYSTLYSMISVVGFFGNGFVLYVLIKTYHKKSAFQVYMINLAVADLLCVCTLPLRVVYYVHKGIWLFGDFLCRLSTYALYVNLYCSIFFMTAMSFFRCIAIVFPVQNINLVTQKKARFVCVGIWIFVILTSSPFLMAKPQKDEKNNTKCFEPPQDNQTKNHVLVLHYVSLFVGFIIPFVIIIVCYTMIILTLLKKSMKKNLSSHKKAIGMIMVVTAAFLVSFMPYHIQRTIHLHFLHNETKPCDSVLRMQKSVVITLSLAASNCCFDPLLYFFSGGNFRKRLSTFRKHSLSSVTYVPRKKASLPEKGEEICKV
The class given is cell membranes, CHO-K1, Membrane. The note with it: cho-k1.

Experiment [2] addresses 5-hydroxytryptamine receptor 4 (Cavia porcellus, UniProt O70528). The experiment is classed as cell membranes, Dunkin-Hartley, Striatum, Membrane. The note with it: for Ki: read-out: Ki.
In experiment [3] the target is T2, Thromboxane-A synthase (Homo sapiens, UniProt P24557).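 Also: enzyme inhibition assay with PGH2 supplied as substrate; in other assays of this panel Not Active means under 50% inhibition at 10 µM.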
T2 sequence (P24557 whole entry): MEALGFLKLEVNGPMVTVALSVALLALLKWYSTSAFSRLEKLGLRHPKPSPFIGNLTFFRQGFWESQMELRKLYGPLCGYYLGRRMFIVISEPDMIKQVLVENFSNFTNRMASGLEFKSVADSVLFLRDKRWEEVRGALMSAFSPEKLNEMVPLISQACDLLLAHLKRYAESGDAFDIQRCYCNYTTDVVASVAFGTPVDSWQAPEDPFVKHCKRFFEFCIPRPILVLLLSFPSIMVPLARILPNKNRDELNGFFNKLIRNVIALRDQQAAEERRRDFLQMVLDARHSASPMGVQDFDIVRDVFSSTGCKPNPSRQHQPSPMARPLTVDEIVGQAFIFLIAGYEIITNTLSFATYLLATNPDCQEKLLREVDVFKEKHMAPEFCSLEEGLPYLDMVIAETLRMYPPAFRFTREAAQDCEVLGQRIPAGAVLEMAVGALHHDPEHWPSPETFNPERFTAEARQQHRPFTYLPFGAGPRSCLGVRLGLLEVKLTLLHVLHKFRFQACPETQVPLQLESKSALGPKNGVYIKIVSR
The experiment is described as follows: biochemical. The experiment is classed as tissue-based, Platelet.

The target of experiment [4] is T3, D(4) dopamine receptor (Homo sapiens, UniProt P21917).
T3 sequence (P21917 whole entry): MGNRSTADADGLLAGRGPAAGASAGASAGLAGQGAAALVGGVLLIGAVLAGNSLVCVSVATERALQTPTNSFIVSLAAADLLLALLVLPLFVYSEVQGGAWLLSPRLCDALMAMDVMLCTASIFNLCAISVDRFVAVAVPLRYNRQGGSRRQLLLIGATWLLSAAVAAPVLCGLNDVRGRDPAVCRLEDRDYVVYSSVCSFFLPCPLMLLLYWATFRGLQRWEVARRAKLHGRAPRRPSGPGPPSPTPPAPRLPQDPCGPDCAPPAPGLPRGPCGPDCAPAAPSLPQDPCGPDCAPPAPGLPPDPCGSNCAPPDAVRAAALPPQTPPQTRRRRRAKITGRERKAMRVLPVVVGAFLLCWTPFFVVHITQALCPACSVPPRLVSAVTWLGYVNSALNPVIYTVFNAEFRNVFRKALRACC
The experiment is described as follows: DRUGMATRIX: Dopamine D4.2 radioligand binding (ligand: [3H] Spiperone). The experiment is classed as cell membranes, CHO-K1, Membrane. To be noted: cho-k1; Not Active = under 50% inhibition at 10 µM.

A short description of experiment [5]: DRUGMATRIX: Serotonin (5-Hydroxytryptamine) 5-HT3 radioligand binding (ligand: [3H] GR-65630). The experiment is classed as cell membranes, Membrane. To be noted: hek293; Not Active = under 50% inhibition at 10 µM.
The nature of experiment [6]: DRUGMATRIX: Atrial Natriuretic Factor (ANF) radioligand binding (ligand: [125I] ANF (rat)). The experiment is classed as cell membranes, Cavia porcellus, Dunkin-Hartley, Adrenal gland, Membrane. The note with it: Not Active = under 50% inhibition at 10 µM.

5-hydroxytryptamine receptor 4, sequence (O70528 whole entry): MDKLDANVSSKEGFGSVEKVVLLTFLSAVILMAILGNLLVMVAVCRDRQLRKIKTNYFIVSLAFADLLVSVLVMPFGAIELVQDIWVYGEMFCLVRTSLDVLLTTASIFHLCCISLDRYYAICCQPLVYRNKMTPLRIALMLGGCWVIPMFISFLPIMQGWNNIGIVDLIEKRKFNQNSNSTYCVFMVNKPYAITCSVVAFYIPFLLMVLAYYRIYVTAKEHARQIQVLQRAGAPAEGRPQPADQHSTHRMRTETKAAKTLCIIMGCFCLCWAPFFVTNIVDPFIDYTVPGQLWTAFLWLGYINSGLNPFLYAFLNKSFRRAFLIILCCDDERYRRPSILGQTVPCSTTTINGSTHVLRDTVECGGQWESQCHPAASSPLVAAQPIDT

`CCN(CC)N=O` [N-NITROSODIETHYLAMINE]: the IC50 result in experiment [1], in experiment [2], in experiment [3] (platelet), in experiment [4], in experiment [5] and in experiment [6] was “Not Active” in each case. For the same molecule, the Ki entry in experiment [5] and in experiment [6] was “Not Active” in each case.

Consider `Cc1ccc(S(=O)(=O)NC(=O)NN2CCCCCC2)cc1` [TOLAZAMIDE], for which the IC50 entry in experiment [1], in experiment [2], in experiment [3] (platelet), in experiment [4], in experiment [5] and in experiment [6] was “Not Active” in each case. The Ki result in experiment [5] and in experiment [6] was “Not Active” each time.

As to `CC(O)C(=O)O` (centres undefined) [LACTIC ACID], the half-maximal inhibitory concentration (IC50) result in experiment [1], in experiment [2], in experiment [3] (platelet), in experiment [4], in experiment [5] and in experiment [6] was “Not Active” in each case. The Ki entry in experiment [5] and in experiment [6] was “Not Active” in each case.

As to `CS(=O)(=O)c1ccc(C2=C(c3ccccc3)C(=O)OC2)cc1` [ROFECOXIB], the concentration for half-maximal inhibition (IC50) entry in experiment [1], in experiment [2], in experiment [3] (platelet), in experiment [4], in experiment [5] and in experiment [6] was “Not Active” throughout. In addition, the Ki result in experiment [5] and in experiment [6] was “Not Active” in each case.

Take `CCOC(=O)C1=C(C)NC(C)=C(C(=O)OCC)C1c1ccccc1/C=C/C(=O)OC(C)(C)C` [LACIDIPINE]: the IC50 entry in experiment [1] was “Not Active”; in experiment [2] it was “Not Active”; in experiment [3] (read-out: IC50) it was 1690 nM; in experiment [4], “Not Active”; in experiment [5] it was “Not Active”; in experiment [6], “Not Active”. Further, the inhibitory constant (Ki) result in experiment [5] and in experiment [6] was “Not Active” in each case.

Regarding `CC(N)C12CC3CC(CC(C3)C1)C2` (centres undefined) [RIMANTADINE], the IC50 result in experiment [1], in experiment [2], in experiment [3] (platelet), in experiment [4], in experiment [5] and in experiment [6] was “Not Active” each time. Further, the Ki result in experiment [5] and in experiment [6] was “Not Active” each time.

Consider `CC(Cl)(Cl)Cl` [TRICHLOROETHANE], for which the IC50 result in experiment [1], in experiment [2], in experiment [3] (platelet), in experiment [4], in experiment [5] and in experiment [6] was “Not Active” each time. The Ki entry in experiment [5] and in experiment [6] was “Not Active” throughout.

In the case of `O=C(O)c1cc(/N=N/c2ccc(S(=O)(=O)Nc3ccccn3)cc2)ccc1O` [SULFASALAZINE], the IC50 entry in experiment [1] is “Not Active”; in experiment [2], “Not Active”; in experiment [3] (read-out: IC50), 19600 nM; in experiment [4], “Not Active”; in experiment [5] it was “Not Active”; in experiment [6], “Not Active”. For the same molecule, the Ki entry in experiment [5] and in experiment [6] was “Not Active” each time.

As to `Cc1cccc(C)c1NC(=O)C(C)N` (centres undefined) [TOCAINIDE], the IC50 result in experiment [1], in experiment [2], in experiment [3] (platelet), in experiment [4], in experiment [5] and in experiment [6] was “Not Active” in each case. The Ki entry in experiment [5] and in experiment [6] was “Not Active” in each case.

With `CO[C@@]12[C@H](COC(N)=O)C3=C(C(=O)C(C)=C(N)C3=O)N1C[C@@H]1N[C@@H]12` [MITOMYCIN], the IC50 result in experiment [1], in experiment [2], in experiment [3] (platelet), in experiment [4], in experiment [5] and in experiment [6] was “Not Active” in each case. In addition, the inhibition constant (Ki) entry in experiment [5] and in experiment [6] was “Not Active” throughout.

As to `Nc1nc(N)c2nc(-c3ccccc3)c(N)nc2n1`, the IC50 result in experiment [1], in experiment [2], in experiment [3] (platelet), in experiment [4], in experiment [5] and in experiment [6] was “Not Active” throughout. For the same molecule, the Ki result in experiment [5] and in experiment [6] was “Not Active” throughout.

Take `CC1=C(/C=C/C(C)=C/C=C/C(C)=C/C(=O)O)C(C)(C)CCC1` [TRETINOIN]: the IC50 result in experiment [1], in experiment [2], in experiment [3] (platelet), in experiment [4], in experiment [5] and in experiment [6] was “Not Active” throughout. Also, the Ki result in experiment [5] and in experiment [6] was “Not Active” each time.

In the case of `CC[C@@]1(O)C(=O)OCc2c1cc1n(c2=O)Cc2cc3c(CN(C)C)c(O)ccc3nc2-1` [TOPOTECAN], the IC50 result in experiment [1], in experiment [2], in experiment [3] (platelet), in experiment [4], in experiment [5] and in experiment [6] was “Not Active” each time. Besides, the Ki entry in experiment [5] and in experiment [6] was “Not Active” throughout.

Regarding `Cc1ccc(Cl)c(Nc2ccccc2C(=O)O)c1Cl` [MECLOFENAMIC ACID], the IC50 result in experiment [1], in experiment [2], in experiment [3] (platelet), in experiment [4], in experiment [5] and in experiment [6] was “Not Active” in each case. For the same molecule, the Ki entry in experiment [5] and in experiment [6] was “Not Active” throughout.

With `CCOc1cc(N)c(Cl)cc1C(=O)NCC1CN(Cc2ccc(F)cc2)CCO1` (centres undefined) [MOSAPRIDE], the concentration for half-maximal inhibition (IC50) entry in experiment [1] was “Not Active”; in experiment [2] (read-out: IC50) it was 882 nM; in experiment [3] (platelet), “Not Active”; in experiment [4], “Not Active”; in experiment [5], “Not Active”; in experiment [6], “Not Active”. In addition, the Ki was 147 nM in experiment [2], “Not Active” in experiment [5] and “Not Active” in experiment [6].

Take `CN1C[C@H](CNC(=O)OCc2ccccc2)C[C@@H]2c3cccc4c3c(cn4C)C[C@H]21` [METERGOLINE]: the IC50 result in experiment [1] was “Not Active”; in experiment [2] (read-out: IC50), 1640 nM; in experiment [3] (platelet) it was “Not Active”; in experiment [4] it was “Not Active”; in experiment [5] it was “Not Active”; in experiment [6], “Not Active”. For the same molecule, the Ki is 274 nM in experiment [2], “Not Active” in experiment [5] and “Not Active” in experiment [6].

As to `C1CCN2C[C@@H]3C[C@@H](CN4CCCC[C@@H]34)[C@H]2C1` [SPARTEINE], the IC50 entry in experiment [1], in experiment [2], in experiment [3] (platelet), in experiment [4], in experiment [5] and in experiment [6] was “Not Active” throughout. The Ki result in experiment [5] and in experiment [6] was “Not Active” each time.

For `CO[C@@H]1[C@@H](OC)[C@H](C)[C@@](O)(CC(=O)O)O[C@H]1[C@H](C)[C@H]1O[C@@]2(CC[C@@](C)([C@H]3CC[C@@](C)([C@@H]4O[C@@H]([C@H]5O[C@](C)(O)[C@H](C)C[C@@H]5C)C[C@@H]4O[C@@H]4C[C@H](OC)[C@@H](OC)[C@H](C)O4)O3)O2)C[C@H](O)[C@H]1C.N` [MADURAMICIN], the IC50 entry in experiment [1], in experiment [2], in experiment [3] (platelet), in experiment [4], in experiment [5] and in experiment [6] was “Not Active” throughout. Further, the Ki entry in experiment [5] and in experiment [6] was “Not Active” throughout.

Take `CN1C(=O)OC(C)(C)C1=O` [TRIMETHADIONE]: the IC50 entry in experiment [1], in experiment [2], in experiment [3] (platelet), in experiment [4], in experiment [5] and in experiment [6] was “Not Active” throughout. For the same molecule, the Ki result in experiment [5] and in experiment [6] was “Not Active” throughout.

For the origin of these results see ChEMBL document CHEMBL1909046, “DrugMatrix in vitro pharmacology data”.
